CC50, EC50 and IC50 data for four compounds are collected here from patent US9187515B2, “2′,4′-fluoro nucleosides for the treatment of HCV” (Idenix Pharmaceuticals, Inc., priority 2013, dated 2015).

A short description of data set [1]: Cytotoxicity evaluation, CellTiter-Blue Cell Viability Assay. Particulars: human, Zluc cells. Format: cell-based. Background: Alamar Blue is a resazurin reagent that responds to reducing activity.
Data set [2] deals with HCV genotype 1b replicon in Huh-7-derived cell line (Zluc). Nature of the data set: HCV replicon assay (luciferase reporter). It counts as cell-based. The settings on record: Hepatitis C virus; Zluc cells, 72 hours of incubation. How it is done: Huh-7-derived cell line (Zluc) that harbors an HCV genotype 1b replicon and a luciferase reporter gene was grown in Dulbecco's Modified Eagle Medium (DMEM) supplemented with 10% fetal bovine serum, 2 mM GlutaMAX, 1% MEM nonessential amino acids, 100 IU/mL penicillin, 100 μg/mL streptomycin, and 0.5 mg/mL Geneticin® (G418). For dose response testing the cells were seeded in 96-well plates at 7.5×10^3 cells per well in a volume of 50 μL, and incubated at 37° C./5% CO2. Drug solutions were made up freshly in Huh-7 media as 2× stocks. Ten additional 5-fold dilutions were prepared from these stocks in DMEM without G418. At least three hours after Zluc cells were seeded, drug treatment was initiated by adding 50 μL of drug dilutions to the plates in duplicate. Final concentrations of drug ranged from 100 μM to 0.0000512 μM. Cells were then incubated at 37° C./5% CO2. Alternatively, compounds were tested at two concentrations (1 μM and 10 μM). […] For this, media was removed from the plates via gentle tapping. […] The plates were shaken gently for 3 min at room temperature and luminescence was measured on a Victor^3 V 1420 multilabel counter (Perkin Elmer) with a 1 second read time using a 700 nm cut-off filter. The EC50 values were calculated from dose response curves from the resulting best-fit equations determined by Microsoft Excel and XLfit 4.1 software. […]

In data set [3] the target is T1, wild-type HCV genotype 1b NS5B protein (recombinant HCV polymerase) (Hepatitis C virus genotype 1b, UniProt Q9WMX2).
T1 construct: HCV genotype 1b NS5B protein were used to generate recombinant HCV polymerases (with a deletion of the 21 carboxy terminal amino acids); made in house
Briefly: HCV polymerase enzyme assay, wild-type. Format: biochemical. An excerpt: (§1) Test compounds in the form of nucleoside triphosphates were examined for inhibitory activity against purified HCV polymerase in a standard assay. Bacterial expression constructs encoding the approximately 65 kDa HCV genotype 1b NS5B protein were used to generate recombinant HCV polymerases (with a deletion of the 21 carboxy terminal amino acids). Both the wild-type genotype 1b protein and protein containing the S282T mutation were expressed and purified for use in the enzymatic activity assay.
(§2) The enzymatic activity assay measured the inhibitory effect of increasing concentrations of test compound on the incorporation of α-[^33P]-labeled nucleotide into trichloroacetic acid-precipitable material. Recombinant polymerase and synthetic RNA template were combined in reaction buffer containing ribonucleoside triphosphates, α-[^33P]-labeled nucleotide and eight concentrations of test compound in three-fold dilutions. […]
(§3) Reactions were terminated by the addition of ice-cold trichloroacetic acid and sodium pyrophosphate to promote precipitation of newly-synthesized ribonucleic acid. Precipitable material from the reactions was collected by filtration onto 96-well filter plates, washed extensively with water, and quantified by liquid scintillation.
(§4) The inhibitory activity of test compounds was determined by fitting results to dose-response curves using XLfit software.

The target of data set [4] is T2, HCV genotype 1b NS5B protein containing the S282T mutation (Hepatitis C virus genotype 1b, UniProt Q9WMX2, S2701T).
T2 construct: HCV genotype 1b NS5B protein were used to generate recombinant HCV polymerases (with a deletion of the 21 carboxy terminal amino acids); made in house
Briefly: HCV polymerase enzyme assay, S282T mutant. It counts as biochemical. The settings on record: nucleoside triphosphate; S282T genotype 1b NS5B; 2 h at 30° C.
Description: as §1, §2, §3, §4

The term CC50 denotes the concentration that lowers cell viability or growth by half. A higher CC50 goes with lower toxicity to the cells. Usually EC50 stands for the concentration needed to bring the measured effect to its halfway point. Take `O=c1ccn([C@@H]2O[C@](F)(CO)[C@@H](O)[C@H]2F)c(=O)[nH]1` [Compound 101, 1-((2R,3R,4S,5S)-3,5-difluoro-4-hydroxy-5-(hydroxymethyl)tetrahydrofuran-2-yl)pyrimidine-2,4(1H,3H)-dione]: in data set [1], the CC50 at 72 h was over 50000 nM. The EC50 in data set [2] is over 10000 nM.
Regarding `Nc1ccn([C@@H]2O[C@](F)(CO)[C@@H](O)[C@H]2F)c(=O)n1` [Compound 105], the cytotoxic concentration (CC50) at 72 h in data set [1] was over 50000 nM. For the same compound, in data set [2], the EC50 lay in the range of 250 to 1000 nM.
The term IC50 denotes the concentration needed to halve the response being measured. With `O=c1ccn([C@@H]2O[C@](F)(COP(=O)(O)OP(=O)(O)OP(=O)(O)O)[C@@H](O)[C@H]2F)c(=O)[nH]1` [Compound 201], the IC50 in data set [3] was 250 to 1000 nM; in data set [4] it was under 250 nM.
Consider `Nc1ccn([C@@H]2O[C@](F)(COP(=O)(O)OP(=O)(O)OP(=O)(O)O)[C@@H](O)[C@H]2F)c(=O)n1` [Compound 205], for which the IC50 in data set [3] and in data set [4] was under 250 nM throughout.
